Test results as given in publication PMC6085350, “Small molecule inhibitors of RAS-effector protein interactions derived using an intracellular antibody fragment” (Nature Communications, 2018).
Entries after “also recorded” stand apart in the source; their conditions may differ. Where two headings read alike, the source gives them in different places.

Columns and labels:
[1] = system: HT1080 cells (NRAS^Q61K); assay: Cell viability (CellTiterGlo), HT1080; type: cell-based, human; conditions: for effect on cell viability: HT1080, 0–20 μM, up to 72 h; for IC50: Homo sapiens, HT-1080
Protocol: (§1) Fig. 5 Abd-7 results on RAS-dependent signalling pathways and cell viability. a, b DLD-1 (a) or H358 (b) cells were serum-starved for 24 h, incubated in mono-layer with Abd-7 in a range from 2, 5, 10 and 20 μM for 3 h and stimulated with EGF 10 min. Proteins were extracted and separated by SDS-PAGE and transferred to membranes for Western analysis with anti-pAKT, anti-pERK, anti-pan AKT and anti-pan ERK. Anti-cyclophilin B antibody was the loading control. Signal was developed using standard ECL. c–e Effects of compounds Abd-2, Abd-4, Abd-5, Abd-6, and Abd-7 on the viability of human cancer cells lines was assessed for a 2-D culture of DLD-1 (mutant KRAS^G13D) cells and HT1080 cells (mutant NRAS^Q61K). The cells were treated with a dose range from 0 μM to 20 μ and incubated for 72 h when cell viability was assessed using CellTitreGlo. […] Each experiment was repeated at least three times (a, b) and four times (c, d). Where error bars are presented, they correspond to mean values ± SD of biological repeats […]
(§2) Cancer cell lines were in seeded in ViewPlates-96 microplates (PerkinElmer). DLD-1 cells were plated at 10,000 cells per well and HT1080 cells at 7500 cells per well and cultured in DMEM, high glucose, GlutaMAX media containing 10% FBS at 37 °C in 5% CO2 atmosphere. Cells were cultured overnight and the compounds (dissolved in DMSO and diluted to 0.2% DMSO) were added to the cells at concentrations ranging from 0 to 20 μM. The cells were incubated under standard culture conditions for either 24, 48 or 72 h. Cell viability was as quantitated using the CellTiterGlo Luminescent Cell Viability Assay (Promega) according to the manufacturer’s instructions to measure ATP generated by metabolically active cells. Luminescent signals were measured using an Envision 2103 Multilabel Microplate Reader (PerkinElmer). The luminescence signals obtained from the compound-treated cells were normalized against the signal for DMSO-only treated cells. The IC50 values, calculated from the 48 and 72 h CellTiterGlo data, were generated by non-linear regression using the software GraphPad Prism 7.00 for windows (GraphPad Inc).
(§3) Supplementary Figure 7: The effect of Abd compounds on the viability of cancer cells The effect of the chemical series on the viability of human cancer cells lines DLD -1 (a colorectal cancer cell line with mutant KRAS
(§4) ) and HT1080 (a fibrosarcoma cell line with
(§5) ). The cells were treated with a dose range from […] of either
(§6) Abd-2, Abd-4, Abd-5, Abd-6 and Abd-7 and incubated for 24 or 48 hours. Cell viability was assessed using CellTitreGlo . In each case, the data are normalized to cells treated with DMSO only. Panels a and b are DLD-1 viability and panels c and d are HT1080 viability.
(§7) The IC50 for Abd-7 at 48 & 72 […]
(§8) hours are shown in panel f. Each experiment was repeated at least four times ( a to d).
(§9) Where error bars are presented, they correspond to mean values ± SD of biological repeats.
(§10) (1 picture or pasted object on this page, not shown here)

[2] = system: DLD-1 cells (KRAS^G13D); assay: Cell viability (CellTiterGlo), DLD-1; type: cell-based, human; conditions: for effect on cell viability: DLD-1, 0–20 μM, up to 72 h; for IC50: Homo sapiens
Protocol: as §1, §2, §3, §4, §5, §6, §7, §8, §9, §10

[3] = target: T1, KRAS^G12D interaction with PI3Kα, PI3Kγ, CRAF RBD and RALGDS RA (Homo sapiens, UniProt P01116, G12D); assay: BRET2 RAS-effector PPI assay, KRAS G12D; type: cell-based; conditions: HEK293T, 5, 10 and 20 μM, 20 h
T1 construct: Transfection vector encoded full-length RAS was fused to the donor molecule RLuc8; expressed in transfected cells; host or cells: HEK293T
Source text: Fig. 4 Abd-7 disrupting RAS-effector interactions. HEK293T cells were transfected with different BRET-based RAS biosensor expression vectors to evaluate the inhibition of RAS PPI in cells by compound Abd-7. Transfection vector encoded full-length RAS was fused to the donor molecule RLuc8 and the effectors fused to the acceptor molecule GFP[2]. a Effect of Abd-2 and Abd-7 on KRAS^G12D interaction with PI3Kα, PI3Kγ, CRAF or RALGDS. The BRET signal is plotted as a % of control cells treated with DMSO only and dose response to 5, 10 and 20 μM of each compound. b Effect of Abd-2 and Abd-7 on the BRET signal from interaction of KRAS^G12 mutants (Rluc8-KRAS^G12) and full-length CRAF (GFP[2]-CRAF FL). c, d Effect of Abd-2 and Abd-7 on the interaction of NRAS^Q61H (c) and HRAS^G12V (d) with various RAS effectors domain and with full-length CRAF. The BRET ratio corresponds to the light emitted by the GFP[2] acceptor constructs (515 nm ± 30) upon addition of Coelenterazine 400a divided by the light emitted by the RLuc8 donor constructs (410 nm ± 80). The normalized BRET ratio is the BRET ratio normalized to the DMSO negative and calculated as follows: (BRETcompound/BRETDMSO) x 100, where BRETcompound corresponds to the BRET ratio for the compound-treated cells, BRETDMSO to the DMSO-treated cells. Each experiment was repeated at least three times. […]

effect on BRET signal, KRAS^G12D with PI3Kα, PI3Kγ, CRAF RBD, RALGDS RA [3]	IC50 ([1]; HT1080, 48 h, Supplementary Fig. 7f, read-out: HT1080 IC50 48h) [µM]	IC50 ([1]; HT1080, 48 h as printed in discussion, read-out: IC50 cell viability) [µM]	IC50 ([1]; HT1080, 72 h, read-out: IC50 cell viability) [µM]	IC50 ([2]; DLD-1, 72 h, read-out: IC50 cell viability) [µM]	IC50 ([2]; DLD-1, 48 h, Supplementary Fig. 7f, read-out: DLD-1 IC50 48h) [µM]	IC50 ([2]; DLD-1, 48 h as printed in discussion, read-out: IC50 cell viability) [µM]	SMILES	effect on cell viability [1]	effect on cell viability [2]
							COc1cccc(-c2cccc3c2OC(CNC(=O)c2ccc(OCCN(C)C)cc2)CO3)n1 (centres unmarked) [Abd-5]	have an effect on the viability	have an effect on the viability
no effect							O=C(NCC1COc2ccccc2O1)c1ccco1 (centres unmarked) [Abd-2]	no effect on cell viability; also recorded: had not effect	no effect on cell viability; also recorded: had not effect
							COc1nc(-c2cccc3c2O[C@H](CNC(=O)C2CCOCC2)CO3)ccc1Nc1cccc(CN(C)C)c1 [Abd-6]	have an effect on the viability	have an effect on the viability
reduces the BRET signal	9.4	~10	10	8	9.8	~8	COc1nc(-c2cccc3c2OCCO3)ccc1Nc1ccc(CN(C)C)cc1 [Abd-7]		
